Values quoted from earlier work in patent publication US7935665B2, “Non-corrosive cleaning compositions for removing etch residues” (Fujifilm Electronic Materials U.S.A., Inc., priority 2002, dated 2011).

Details: of the acid in the formulation

SMILES: O=C(O)[C@H](O)[C@@H](O)[C@H](O)[C@H](O)CO [D-gluconic acid]
- pKa1: 3.86

SMILES: O=C(O)CC(O)C(=O)O (racemic) [DL-malic acid]
- PKa2: 5.1
- pKa1: 3.48
